Experimental data as given in patent EP1059033A1, “INDUSTRIAL ANTIBACTERIAL/ANTIFUNGAL AGENTS, ALGICIDES AND ANTI-BIOLOGICAL ADHESION AGENTS CONTAINING BENZYLAMINES” (Nissan Chemical Industries, Ltd., priority 1998, dated 1999).
In brackets after ≈: the same amount, converted by molar mass.

Key:
[1] = system: Trichophyton mentagrophytes; test: Agar dilution MIC (Example 2); format: cell-based; settings: 168 h, agar plate, 27 °C, 7 days
Description: (§1) Series of diluted samples (20000, 10000, 5000, 2500, 2000, 1250, 625, 313, 156, 78, 39, 20, 10, 5, 2.5, 1.25 mg/l) of the compounds of the invention were prepared using dimethylsulfoxide. A sensitive culture medium-N (Nissui Seiyaku Co.) was used for bacteria and a potato dextrose agar culture medium (Nissui Seiyaku Co.) was used for fungi. 0.5 ml of each sample was added to and mixed with 9.5 ml of the culture medium, poured into a Petri dish and solidified to obtain a plate. As a result, the concentration of the compounds of the invention in the agar culture medium were 1000, 500, 250, 125, 100, 62.5, 31.3, 15.6, 7.8, 3.9, 2.0, 1.0, 0.5, 0.25, 0.125, 0.062 mg/l. The bacterium inoculated were cultured in a bouillon for the assay of sensitivity (Nissui Seiyaku Co.) at 37 °C for 20 hours, and the fungi were cultured in the potato dextrose agar culture medium (Nissui Seiyaku Co.) for 10 days and then a 10^6 CFU/ml suspension was prepared from each of them. A test bacteria or fungi suspension was streaked on an agar plate containing the compound of the present invention with platinum wire loop, and the agar plate was cultured at 37±1 °C for 18 to 20 hours for bacteria or at 27 °C for 7 days for fungi. A concentration at which no growth was seen was taken as minimum inhibitory concentration [MIC(mg/l)]. Symbols in the table mean the followings; • A: Bacillus subtilis, • B: Trichophyton mentagrophytes, • C: Rhodotorula mucilaginosa.

[2] = system: Bacillus subtilis; test: Agar dilution MIC (Example 2); format: cell-based; settings: agar plate, 37±1 °C, 18 to 20 hours
Description: as §1

[3] = system: Penicillium funiculosum; test: Agar dilution MIC (Example 3); format: cell-based; settings: Talaromyces funiculosus, 168 h, agar plate, 27 °C, 7 days
Description: (§2) Series of diluted samples (20000, 10000, 5000, 2500, 1250, 625, 313, 156, 78, 39 mg/l) of the compounds of the invention were prepared using dimethylsulfoxide. A sensitive culture medium-N (Nissui Seiyaku Co.) was used for bacteria and a potato dextrose agar culture medium (Nissui Seiyaku Co.) was used for fungi. 0.5 ml of each sample was added to and mixed with 9.5 ml of the culture medium, poured into a Petri dish and solidified to obtain a plate. As a result, the concentration of the compounds of the invention in the agar culture medium were 1000, 500, 250, 125, 62.5, 31.3, 15.6, 7.8, 3.9, 2.0 mg/l. The bacterium inoculated were cultured in a bouillon for the assay of sensitivity (Nissui Seiyaku Co.) at 37 °C for 20 hours, and the fungi were cultured in the potato dextrose agar culture medium (Nissui Seiyaku Co.) for 10 days and then a 10^6 CFU/ml suspension was prepared from each of them. A test bacteria or fungi suspension was streaked on an agar plate containing the compound of the present invention with platinum wire loop, and the agar plate was cultured at 37±1 °C for 18 to 20 hours for bacteria or at 27 °C for 7 days for fungi. A concentration at which no growth was seen was taken as minimum inhibitory concentration (MIC). Symbols in the tables mean the followings; • A: Bacillus subtilis, • B: Trichophyton mentagrophytes, • C: Staphylococcus aureus, • D: Aspergillus niger, • E: Penicillium funiculosum, • F: Candida albicans, • G: Micrococcus luteus, • H: Corynebacterium aquaticum, • I: Chaetomium globosum, • J: Fusarium moniliforme, • K: Saccharomyces cerevisiae, • L: Rhodotorula rubra, • M: Cladosporium cladosporioides, • N: Alternaria alternata.

[4] = system: Candida albicans; test: Agar dilution MIC (Example 3); format: cell-based; settings: 168 h, agar plate, 27 °C, 7 days
Description: as §2

[5] = system: Trichophyton mentagrophytes; test: Agar dilution MIC (Example 3); format: cell-based; settings: 168 h, agar plate, 27 °C, 7 days
Description: as §2

[6] = system: Bacillus subtilis; test: Agar dilution MIC (Example 3); format: cell-based; settings: agar plate, 37±1 °C, 18 to 20 hours
Description: as §2

[7] = system: Aspergillus niger; test: Agar dilution MIC (Example 3); format: cell-based; settings: 168 h, agar plate, 27 °C, 7 days
Description: as §2

[8] = system: seawater diatom [Nitzschia closterium]; test: Inhibition of propagation of seawater diatom (Example 5); format: cell-based; settings: Cylindrotheca closterium, 72 h, read-out: Propagation inhibiting rate(%) 500ppb
Description: A predetermined amount of each of the compounds of the invention was dissolved in culture media containing 10^5 /ml of a seawater diatom [Nitzschia closterium] at a logarithmic growth phase to prepare samples having a concentration of the compound in the medium of 500 ppb. The samples were stationary cultured at 22±1 °C for […] under continuous illumination.
After 72 hours, cells were collected by centrifugation and disrupted by addition of methanol to extract chlorophyll, and the amount of chlorophyll was measured from absorbance using a spectrophotometer to obtain propagation rate. The propagation inhibiting rate was calculated from comparison with the non-treated lot.

[9] = system: freshwater green alga (Selenastrum capricornutum); test: Inhibition of propagation of freshwater green alga (Example 4); format: cell-based; settings: 500ppb, after 72 hours, cell number vs non-treated lot, read-out: Propagation inhibiting rate(%) 500ppb
Description: A predetermined amount of each of the compounds of the invention was dissolved in a culture medium containing 10^5 /ml of a freshwater green alga (Selenastrum capricornutum) at a logarithmic growth phase to prepare samples having a concentration of the compound of the invention in the medium of 500 ppb and 50ppb respectively. The samples were stationary cultured at 23±1 °C for […] under continuous illumination.
After 72 hours, the number of cells was measured using a hemacytometer to obtain propagation rate. The propagation inhibiting rate was calculated from comparison with the non-treated lot.

[10] = system: Rhodotorula mucilaginosa; test: Agar dilution MIC (Example 2); format: cell-based; settings: 168 h, agar plate, 27 °C, 7 days
Description: as §1

[11] = system: Cladosporium cladosporioides; test: Agar dilution MIC (Example 3); format: cell-based; settings: 168 h, agar plate, 27 °C, 7 days
Description: as §2

[12] = system: Rhodotorula rubra; test: Agar dilution MIC (Example 3); format: cell-based; settings: 168 h, agar plate, 27 °C, 7 days
Description: as §2

[13] = system: Alternaria alternata; test: Agar dilution MIC (Example 3); format: cell-based; settings: 168 h, agar plate, 27 °C, 7 days
Description: as §2

[14] = system: Chaetomium globosum; test: Agar dilution MIC (Example 3); format: cell-based; settings: 168 h, agar plate, 27 °C, 7 days
Description: as §2

[15] = system: Micrococcus luteus; test: Agar dilution MIC (Example 3); format: cell-based; settings: agar plate, 37±1 °C, 18 to 20 hours
Description: as §2

[16] = system: Corynebacterium aquaticum; test: Agar dilution MIC (Example 3); format: cell-based; settings: Leifsonia aquatica, agar plate, 37±1 °C, 18 to 20 hours
Description: as §2

[17] = system: Saccharomyces cerevisiae; test: Agar dilution MIC (Example 3); format: cell-based; settings: 168 h, agar plate, 27 °C, 7 days
Description: as §2

[18] = system: blue mussel; test: Antifouling (adhesion repellent) activity against blue mussel (Example 7); format: in vivo, Mytilus edulis; set-up: key: ++: not adhered in the zone and strong repellent effect is observed; +: adhesion in zone is observed but most of them adhered out of zone and repellent effect is observed; -: adhered in and out of zone alike and repellent effect is not observed; settings: seawater, dark, 3 hours
Description: The compound of the invention was completely dissolved in 1 ml of acetone and the resulting solution was uniformly applied to a 4 cm-diameter zone drawn on a test plate. A zone coated with acetone alone as blank and zones coated with 1.0 mg and 0.5 mg of copper sulfate as a comparison chemical were also prepared. After drying, four blue mussel having a shell length of about 2 to 2.5 cm were adhered around each zone using a rubber piece as a spacer. The thus prepared test plate was immersed in a water tank to which seawater ran and left to stand in the dark for 3 hours.
The adhesion controlling effect (adhesion repellent activity) was obtained from comparison with copper sulfate used as a comparison chemical.
The evaluation of adhesion repellent activity was based on "Evaluation method of adhesion repellent substance to marine adhesion organisms using Mytilus edulis" written by Kazuo Ina and Hideo Etoh (Chemistry and Biology, vol.28 (No.2), pp.132-138, 1990).
Symbols in the table mean the followings; • ++: not adhered in the zone and strong repellent effect is observed, • +: adhesion in zone is observed but most of them adhered out of zone and repellent effect is observed, • -: adhered in and out of zone alike and repellent effect is not observed.

Row | MIC [1] | MIC [2] | MIC [3] | MIC [4] | MIC [5] | MIC [6] | MIC [7] | MIC [10] | MIC [11] | MIC [12] | MIC [13] | MIC [14] | MIC [15] | MIC [16] | MIC [17] | Structure (SMILES) | inhibition at 0.5 ppm [8] | inhibition at 0.5 ppm [9] | Judgment (adhesion repellent activity against blue mussel) ([18]; Amount of chemical 0.5 mg on 4 cm-diameter zone) | Judgment (adhesion repellent activity against blue mussel) ([18]; Amount of chemical 1.0 mg on 4 cm-diameter zone)
1 | 7.8 µg/mL (≈ 24.2 µM) | 7.8 µg/mL (≈ 24.2 µM) | 62.5 µg/mL (≈ 194 µM) | 62.5 µg/mL (≈ 194 µM) | 7.8 µg/mL (≈ 24.2 µM) | 7.8 µg/mL (≈ 24.2 µM) | 125 µg/mL (≈ 388 µM) |  |  |  |  |  |  |  |  | CC(C)(C)c1ccc(CNCc2cccc(Cl)c2Cl)cc1 [Compound 16] | 80% | 90% |  | 
2 | 7.8 µg/mL (≈ 27.7 µM) | 31.3 µg/mL (≈ 111 µM) |  |  |  |  |  | 15.6 µg/mL (≈ 55.4 µM) | 125 µg/mL (≈ 444 µM) | 125 µg/mL (≈ 444 µM) | 125 µg/mL (≈ 444 µM) | 63 µg/mL (≈ 224 µM) | 15.6 µg/mL (≈ 55.4 µM) | 7.8 µg/mL (≈ 27.7 µM) | 63 µg/mL (≈ 224 µM) | Cc1cccc(CNCc2ccc(C(C)(C)C)cc2)c1C [Compound 27] | 90% | 89% |  | 
3 |  |  |  |  |  |  |  |  |  |  |  |  |  |  |  | O=S(=O)([O-])[O-].[Cu+2] [Copper sulfate] |  |  | - | +
